Test results from patent US11890287B2, “Therapeutic compounds and compositions for treating social disorders and substance use disorders” (Kinoxis Therapeutics Pty Ltd, priority 2015, dated 2024).

Experiments:
[1] = Pharmacokinetics after IP and PO administration; assay type: in vivo, Hooded Wistar rats; settings: for AUC(0-inf) / AUC(0-t) / Cmax / Tmax: Hooded Wistar, rat, plasma
Procedure: When given via an intraperitoneal injection (IP), SOC-1 plasma levels show a rapid elevation. This swiftly declines over the first hour before settling into a less hasty decrease in concentration over the proceeding hours. […] The initial increase in plasma levels is less pronounced when SOC-1 is given orally but the decline is far less rapid, with plasma concentration becoming equivalent to IP between 1 and 4 hours. In many ways this is a more favourable profile as, unlike the IP dosing, oral dosing results in levels of SOC-1 that are still high but that are also very stable over many hours, with a half-life of over four hours.

[2] = target: human OT receptor (Homo sapiens, UniProt P30559); experiment: Orthosteric binding against [3H]OT
[3] = target: V1B (Homo sapiens, UniProt P47901); experiment: Orthosteric binding, AVP receptors
[4] = system: HEK-293 cells; experiment: Cell viability (Cell Titer Blue); assay type: cell-based; settings: 48 hours; for Viability: mean ± SD
Procedure: (§1) No apparent cytotoxicity of SOC-1 has been seen in vitro or toxicity in vivo. In a test, SH-SY5Y neuroblastoma cells and HEK-293 cells (4×10^4 cells per well) were exposed to OT or SOC-1 (0.01-10 μM) for 48 hours, with daily media changes. Viability of cells was assessed after a 4 hour exposure to Cell Titer Blue (Promega).

[5] = system: SH-SY5Y neuroblastoma cells; experiment: Cell viability (Cell Titer Blue); assay type: cell-based; settings: 48 hours; for Viability: mean ± SD
Procedure: as §1

[6] = system: rats; experiment: Conditioned place preference; settings: rat, in vivo
[7] = system: Sprague Dawley rats; experiment: Acute toxicity, single intravenous bolus dose 1-30 mg/kg, one week dose range finding study; assay type: in vivo; settings: for Hunched posture or gait- mild (incidence) / Number of abnormalities detected: (incidence) / Palpebral closure- mild/moderate (incidence) / Piloerection- mild (incidence) / Reduced activity- mild (incidence): n 3
Procedure: The acute toxicity of the SOC-1 test item was assessed in Sprague Dawley rats following intravenous administration of a single bolus dose. A total of four groups of n=3 adult female rats were treated with 1, 3, 10 and 30 mg/kg doses of SOC-1. The rats were then observed for 7 days prior to termination on Study Day 8 without necropsy.
The design of this acute single dose toxicity study in rats was adapted from OECD Guideline for Testing of Chemicals No. 420 Acute Oral Toxicity—Fixed Dose Procedure’ 2001 (2) and the test facility Standard Operating Procedure SP_T002 ‘Dose Range Finding Study in Rodents’. The study procedures were conducted as outlined below and according to related test facility Standard Operating Procedures.
Briefly, on completion of the acclimation period the study was commenced with administration of the treatment on Study Day 1. […] Body weights were also collected daily. On Study Day 8 the surviving animals were culled without necropsy.
The test item treatments were administered as a bolus intravenous injection in a dose volume of 2 mL/kg on Study Day 1 with restraint on conscious animals (with the exception of Group 4 where the treatment was administered in a dose volume of 6 mL/kg on lightly anaesthetised animals following the administration of isofluorane anaesthetic).
Morbidity and mortality observations were recorded daily during the acclimation period and on Day 8, and twice daily from Day 1 through Day 7.
Clinical observations were conducted at least once during the acclimation period. Clinical observations were conducted at least once daily from Day 1 up to and including the day prior to termination. On the day of treatment the animals were monitored continuously for the first 30 min post-treatment with formal observations made at 30 minutes, 1 hour and 4 hours post-treatment.
The clinical observations included examination of animals for changes in skin and fur, eyes and mucous membranes, respiratory and circulatory function, gait and posture, behaviour, tremors or convulsions and any other abnormal findings.
The clinical observations also included daily examination of the tail for any injection site reaction (for example, erythema or oedema).
Body weight was recorded once during the acclimation period and daily from the time of treatment on Day 1 to Day 8. The mean body weight values for study days 1-8 are shown as group mean±standard deviation (SD) in FIG. 14.

Sequence of V1B (P47901 whole entry): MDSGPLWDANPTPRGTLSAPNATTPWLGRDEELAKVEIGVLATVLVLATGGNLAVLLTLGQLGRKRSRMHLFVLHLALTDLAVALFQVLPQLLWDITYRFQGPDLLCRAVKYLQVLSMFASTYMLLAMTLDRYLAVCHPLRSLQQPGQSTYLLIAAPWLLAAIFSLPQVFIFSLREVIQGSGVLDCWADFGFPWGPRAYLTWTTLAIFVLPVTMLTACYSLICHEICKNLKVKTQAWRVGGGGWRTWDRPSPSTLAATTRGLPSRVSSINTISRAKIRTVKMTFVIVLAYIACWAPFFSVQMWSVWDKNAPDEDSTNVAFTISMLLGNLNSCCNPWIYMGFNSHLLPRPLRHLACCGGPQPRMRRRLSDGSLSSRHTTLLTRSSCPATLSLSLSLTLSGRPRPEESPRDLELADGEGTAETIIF
Sequence of human OT receptor (P30559 whole entry): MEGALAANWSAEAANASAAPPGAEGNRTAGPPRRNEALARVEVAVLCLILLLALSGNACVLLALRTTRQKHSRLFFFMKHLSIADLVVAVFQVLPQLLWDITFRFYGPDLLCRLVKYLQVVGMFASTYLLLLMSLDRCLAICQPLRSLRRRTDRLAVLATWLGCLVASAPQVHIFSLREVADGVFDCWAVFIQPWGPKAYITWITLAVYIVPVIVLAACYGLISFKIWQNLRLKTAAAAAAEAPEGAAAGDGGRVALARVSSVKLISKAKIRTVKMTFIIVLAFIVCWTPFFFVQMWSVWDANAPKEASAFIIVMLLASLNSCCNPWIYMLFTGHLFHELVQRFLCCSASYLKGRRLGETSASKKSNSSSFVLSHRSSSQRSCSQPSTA

Compound `Cl.Cn1ncc2c1Nc1ccccc1NC2` [SOC-1] has an AUC(0-inf) ([1]; ip, 5 mg/kg) of 5910 ng·h/mL, an AUC(0-t) ([1]; ip, 5 mg/kg) of 5520 ng·h/mL and a Cmax ([1]; ip, 5 mg/kg) of 3840 ng/mL. It also gave a Tmax ([1]; ip, 5 mg/kg) of 3.96 min, an AUC(0-inf) ([1]; po, 5 mg/kg) of 8490 ng·h/mL and an AUC(0-t) ([1]; po, 5 mg/kg) of 4060 ng·h/mL. The Cmax ([1]; po, 5 mg/kg) was 1320 ng/mL, the Tmax ([1]; po, 5 mg/kg) was 26.1 min and the ka ([1]; IP, 5 mg/kg) was 71.727 h⁻¹. It also gave a ke ([1]; IP, 5 mg/kg) of 0.679 h⁻¹, a t1/2ka ([1]; IP, 5 mg/kg) of 0.5798 min and a t1/2ke ([1]; IP, 5 mg/kg) of 61.26 min. For the same compound, the ka ([1]; PO, 5 mg/kg) was 9.45 h⁻¹, the t1/2ka ([1]; PO, 5 mg/kg) was 4.38 min and the t1/2ke ([1]; PO, 5 mg/kg) was 248.8 min. The half-life ([1]; oral dosing) was “over four”, the oral bioavailability ([1]; relative to the intraperitoneal route) was “excellent oral bioavailability” and the IC50 [2] was over 10 µM. For the same compound, the “affinity for the orthosteric binding site of V1B” value [3] was “Nor does SOC-1 show any affinity”, the Viability ([4]; 0.01 μM) was 102.6 ± 2.1 percentage of vehicle viability and the Viability ([4]; 0.1 μM) was 102.1 ± 3.2 percentage of vehicle viability. For the same compound, the Viability ([4]; 1 μM) was 102.5 ± 3.6 percentage of vehicle viability, the Viability ([4]; 10 μM) was 103.2 ± 1.2 percentage of vehicle viability and the differences in viability ([4]; 0.01-10 μM) was “No significant differences in viability”. For the same compound, the Viability ([5]; 0.01 μM) was 98.9 ± 2.7 percentage of vehicle viability, the Viability ([5]; 0.1 μM) was 99.1 ± 2.9 percentage of vehicle viability and the Viability ([5]; 1 μM) was 97.7 ± 1.6 percentage of vehicle viability. The Viability ([5]; 10 μM) was 97.0 ± 2.5 percentage of vehicle viability, the differences in viability ([5]; 0.01-10 μM) was “No significant differences in viability” and the conditioned place preference [6] was “does not produce a conditioned place preference”. The “Hunched posture or gait- mild (incidence)” value ([7]; 1 mg/kg IV) was 0, the “Number of abnormalities detected: (incidence)” value ([7]; 1 mg/kg IV) was 3 and the “Palpebral closure- mild/moderate (incidence)” value ([7]; 1 mg/kg IV) was 0. The “Piloerection- mild (incidence)” value ([7]; 1 mg/kg IV) was 0, the “Reduced activity- mild (incidence)” value ([7]; 1 mg/kg IV) was 0 and the “Hunched posture or gait- mild (incidence)” value ([7]; 3 mg/kg IV) was 0. The “Number of abnormalities detected: (incidence)” value ([7]; 3 mg/kg IV) was 3, the “Palpebral closure- mild/moderate (incidence)” value ([7]; 3 mg/kg IV) was 0 and the “Piloerection- mild (incidence)” value ([7]; 3 mg/kg IV) was 0. For the same compound, the “Reduced activity- mild (incidence)” value ([7]; 3 mg/kg IV) was 0, the “reaction at the time of dose administration” value ([7]; 10 mg/kg IV in 0.9% saline) was “exaggerated flinch reaction and vocalisation” and the “Hunched posture or gait- mild (incidence)” value ([7]; 10 mg/kg IV) was 3. For the same compound, the “Number of abnormalities detected: (incidence)” value ([7]; 10 mg/kg IV) was 0, the “Palpebral closure- mild/moderate (incidence)” value ([7]; 10 mg/kg IV) was 0 and the “Piloerection- mild (incidence)” value ([7]; 10 mg/kg IV) was 3. For the same compound, the “Reduced activity- mild (incidence)” value ([7]; 10 mg/kg IV) was 0, the “Hunched posture or gait- mild (incidence)” value ([7]; 30 mg/kg IV) was 0 and the “Number of abnormalities detected: (incidence)” value ([7]; 30 mg/kg IV) was 0. The “Palpebral closure- mild/moderate (incidence)” value ([7]; 30 mg/kg IV) was 1, the “Piloerection- mild (incidence)” value ([7]; 30 mg/kg IV) was 3 and the “Reduced activity- mild (incidence)” value ([7]; 30 mg/kg IV) was 2. The “effect on body weight” value ([7]; 1, 3, 10 and 30 mg/kg IV) was “no effects of SOC-1 test item treatment on body weight”, the injection site reactions ([7]; 1, 3, 10 and 30 mg/kg IV) was “no findings of injection site reactions” and the morbidity and mortality ([7]; 1, 3, 10 and 30 mg/kg IV) was “no unscheduled deaths or findings of morbidity”. The tolerability ([7]; 1, 3, 10 and 30 mg/kg IV) was “tolerated in this study at all dose levels”, the “clinical findings post-dose on Study Day 1” value ([7]; 10 and 30 mg/kg IV) was “piloerection, hunched posture and gait and palpebral closure” and the “time to resolution of clinical findings post-dose” value ([7]; 10 and 30 mg/kg IV) was 4 to 24 h. The “Bodyweight, Mean” value ([7]; Group 1 (1 mg/kg IV), day 1) was 208.233 g, the “Bodyweight, Mean” value ([7]; Group 1 (1 mg/kg IV), day 2) was 203.733 g and the “Bodyweight, Mean” value ([7]; Group 1 (1 mg/kg IV), day 3) was 204.933 g. For the same compound, the “Bodyweight, Mean” value ([7]; Group 1 (1 mg/kg IV), day 4) was 208.100 g, the “Bodyweight, Mean” value ([7]; Group 1 (1 mg/kg IV), day 5) was 210.467 g and the “Bodyweight, Mean” value ([7]; Group 1 (1 mg/kg IV), day 6) was 215.300 g. The “Bodyweight, Mean” value ([7]; Group 1 (1 mg/kg IV), day 7) was 209.833 g, the “Bodyweight, Mean” value ([7]; Group 1 (1 mg/kg IV), day 8) was 216.633 g and the “Bodyweight, Mean” value ([7]; Group 2 (3 mg/kg IV), day 1) was 196.867 g. The “Bodyweight, Mean” value ([7]; Group 2 (3 mg/kg IV), day 2) was 193.700 g, the “Bodyweight, Mean” value ([7]; Group 2 (3 mg/kg IV), day 3) was 198.733 g and the “Bodyweight, Mean” value ([7]; Group 2 (3 mg/kg IV), day 4) was 199.233 g. The “Bodyweight, Mean” value ([7]; Group 2 (3 mg/kg IV), day 5) was 201.200 g, the “Bodyweight, Mean” value ([7]; Group 2 (3 mg/kg IV), day 6) was 204.733 g and the “Bodyweight, Mean” value ([7]; Group 2 (3 mg/kg IV), day 7) was 201.967 g. For the same compound, the “Bodyweight, Mean” value ([7]; Group 2 (3 mg/kg IV), day 8) was 206.333 g, the “Bodyweight, Mean” value ([7]; Group 3 (10 mg/kg IV), day 1) was 205.933 g and the “Bodyweight, Mean” value ([7]; Group 3 (10 mg/kg IV), day 2) was 207.267 g. For the same compound, the “Bodyweight, Mean” value ([7]; Group 3 (10 mg/kg IV), day 3) was 214.533 g, the “Bodyweight, Mean” value ([7]; Group 3 (10 mg/kg IV), day 4) was 216.100 g and the “Bodyweight, Mean” value ([7]; Group 3 (10 mg/kg IV), day 5) was 211.733 g. The “Bodyweight, Mean” value ([7]; Group 3 (10 mg/kg IV), day 6) was 213.433 g, the “Bodyweight, Mean” value ([7]; Group 3 (10 mg/kg IV), day 7) was 219.000 g and the “Bodyweight, Mean” value ([7]; Group 3 (10 mg/kg IV), day 8) was 218.900 g. For the same compound, the “Bodyweight, Mean” value ([7]; Group 4 (30 mg/kg IV), day 1) was 206.833 g, the “Bodyweight, Mean” value ([7]; Group 4 (30 mg/kg IV), day 2) was 202.567 g and the “Bodyweight, Mean” value ([7]; Group 4 (30 mg/kg IV), day 3) was 210.967 g. The “Bodyweight, Mean” value ([7]; Group 4 (30 mg/kg IV), day 4) was 216.500 g, the “Bodyweight, Mean” value ([7]; Group 4 (30 mg/kg IV), day 5) was 209.667 g and the “Bodyweight, Mean” value ([7]; Group 4 (30 mg/kg IV), day 6) was 213.367 g. The “Bodyweight, Mean” value ([7]; Group 4 (30 mg/kg IV), day 7) was 222.300 g, the “Bodyweight, Mean” value ([7]; Group 4 (30 mg/kg IV), day 8) was 219.767 g and the acute tolerated dose ([7]; bolus intravenous injection, female rats) was “at least 30 mg/kg”.
